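Following 48 hours of exposure in 96-well plates, responses at five concentrations were used to interpolate endpoints linearly. The concentration for 50% growth inhibition is given as GI50.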 Active and inactive are the calls of the source. Rule as the data show it: active = GI50 up to about 1.1 µM and inactive = higher.
Experiments:
Test in all cases: growth of human tumour cells (NCI), 48 h
786-0 = system: 786-0
A549 = system: A549
CCRF-CEM = system: CCRF-CEM
COLO 205 = system: COLO 205
HCT-116 = system: HCT-116
HOP-92 = system: HOP-92
IGROV-1 = system: IGROV-1
LOX IMVI = system: LOX IMVI
M14 = system: M14
NCI-H226 = system: NCI-H226
SF-295 = system: SF-295
SK-MEL-28 = system: SK-MEL-28
SK-OV-3 = system: SK-OV-3
SNB-75 = system: SNB-75
SR = system: SR
SW-620 = system: SW-620
UACC-257 = system: UACC-257
UACC-62 = system: UACC-62
UO-31 = system: UO-31

Measured: GI50

Cc1ccc(S(=O)(=O)N(/N=C(\N)Oc2ccc(Cl)cc2)C(=N)Oc2ccc(Cl)cc2)cc1
inactive: 786-0 > 100 µM | A549 > 100 µM | CCRF-CEM > 100 µM | COLO 205 > 100 µM | HCT-116 > 100 µM | HOP-92 > 100 µM | IGROV-1 > 100 µM | LOX IMVI > 100 µM | M14 > 100 µM | NCI-H226 > 100 µM | SF-295 > 100 µM | SK-MEL-28 > 100 µM | SK-OV-3 > 100 µM | SNB-75 > 100 µM | SR > 100 µM | SW-620 > 100 µM | UACC-257 > 100 µM | UACC-62 > 100 µM | UO-31 > 100 µM

O=C1NC(=S)NC(=O)C1=Cc1ccc([N+](=O)[O-])o1
inactive: 786-0 19.3 µM | A549 > 100 µM | CCRF-CEM 23.9 µM | COLO 205 20.2 µM | HCT-116 15 µM | HOP-92 20.7 µM | IGROV-1 21.6 µM | LOX IMVI 17.6 µM | M14 15.7 µM | NCI-H226 > 100 µM | SF-295 78.3 µM | SK-MEL-28 25 µM | SK-OV-3 > 100 µM | SNB-75 16.2 µM | SR 19.6 µM | SW-620 23 µM | UACC-257 44.2 µM | UACC-62 19.4 µM | UO-31 39.2 µM

C/C(=C\Cc1cc(O)ccc1O)CCc1c(C)cc(O)c(C=O)c1C [PANICEIN B3]
inactive: 786-0 25.5 µM | A549 27.4 µM | COLO 205 17.7 µM | HCT-116 19.3 µM | HOP-92 18.9 µM | IGROV-1 23.2 µM | M14 23.5 µM | NCI-H226 22.5 µM | SF-295 27 µM | SK-MEL-28 24 µM | SK-OV-3 32.7 µM | SNB-75 13.9 µM | SR 28.4 µM | SW-620 45.9 µM | UO-31 23.5 µM

COc1cc2c3cc1Oc1c(OC)c(OC)cc4c1[C@@H](Cc1ccc(O)c(c1)Oc1ccc(cc1)C[C@@H]3N(C)CC2)N(C)CC4.c1ccccc1
inactive: 786-0 12.8 µM | A549 22.5 µM | CCRF-CEM 17.5 µM | HCT-116 9.16 µM | HOP-92 8.28 µM | IGROV-1 20 µM | LOX IMVI 17.1 µM | M14 4.61 µM | NCI-H226 22.2 µM | SF-295 16.4 µM | SK-MEL-28 15.3 µM | SNB-75 6.27 µM | SR 2.33 µM | SW-620 16.2 µM | UACC-257 3.36 µM | UACC-62 16 µM | UO-31 15.7 µM

c1cc(N(CCn2cccn2)CCn2cccn2)cc(N(CCn2cccn2)CCn2cccn2)c1
inactive: 786-0 > 100 µM | A549 > 100 µM | CCRF-CEM > 100 µM | COLO 205 > 100 µM | HCT-116 > 100 µM | HOP-92 > 100 µM | LOX IMVI > 100 µM | M14 > 100 µM | SF-295 > 100 µM | SK-MEL-28 > 100 µM | SK-OV-3 > 100 µM | SNB-75 > 100 µM | SR > 100 µM | SW-620 > 100 µM | UACC-257 > 100 µM | UACC-62 > 100 µM | UO-31 > 100 µM

O=C1NC2(CCCC2)C2CCCCC12O (stereo not drawn)
inactive: 786-0 > 100 µM | A549 > 100 µM | CCRF-CEM > 100 µM | COLO 205 > 100 µM | HCT-116 > 100 µM | HOP-92 > 100 µM | IGROV-1 > 100 µM | LOX IMVI > 100 µM | M14 > 100 µM | SF-295 > 100 µM | SK-MEL-28 > 100 µM | SK-OV-3 > 100 µM | SNB-75 > 100 µM | SR > 100 µM | SW-620 > 100 µM | UACC-257 > 100 µM | UACC-62 > 100 µM | UO-31 > 100 µM

CC1(C)CC(N2CCN(C3CC(C)(C)NC(C)(C)C3)CC2)CC(C)(C)N1
inactive: 786-0 > 100 µM | A549 > 100 µM | CCRF-CEM > 100 µM | HCT-116 > 100 µM | HOP-92 > 100 µM | IGROV-1 > 100 µM | LOX IMVI > 100 µM | M14 > 100 µM | SF-295 > 100 µM | SK-MEL-28 > 100 µM | SK-OV-3 > 100 µM | SNB-75 > 100 µM | SR > 100 µM | SW-620 > 100 µM | UACC-257 > 100 µM | UACC-62 > 100 µM | UO-31 > 100 µM

COc1cc(C2C3=C(CCCC3=O)N(c3ccc(C)cc3)C3=C2C(=O)CCC3)c([N+](=O)[O-])cc1OC
inactive: 786-0 63.1 µM | A549 54.5 µM | CCRF-CEM 40.7 µM | HOP-92 52 µM | IGROV-1 > 100 µM | LOX IMVI 83.6 µM | M14 > 100 µM | NCI-H226 76.9 µM | SK-MEL-28 87.3 µM | SK-OV-3 > 100 µM | SNB-75 24.4 µM | SR 54.2 µM | SW-620 > 100 µM | UACC-62 90.4 µM | UO-31 > 100 µM

CC1(C)CC(O)C(C)(C)[C@@H](O)C1 (stereo partly drawn)
inactive: 786-0 > 100 µM | A549 > 100 µM | CCRF-CEM > 100 µM | COLO 205 > 100 µM | HCT-116 > 100 µM | IGROV-1 > 100 µM | LOX IMVI > 100 µM | M14 > 100 µM | NCI-H226 > 100 µM | SF-295 > 100 µM | SK-MEL-28 > 100 µM | SK-OV-3 > 100 µM | SNB-75 > 100 µM | SW-620 > 100 µM | UACC-257 > 100 µM | UACC-62 > 100 µM | UO-31 > 100 µM

CCOC(=O)/C(=C/c1cc(OC)ccc1OC)CC(=O)O
inactive: 786-0 > 31.6 µM | A549 > 100 µM | CCRF-CEM > 31.6 µM | COLO 205 > 100 µM | HCT-116 > 100 µM | HOP-92 > 100 µM | IGROV-1 > 100 µM | LOX IMVI > 100 µM | M14 > 100 µM | SF-295 > 100 µM | SK-MEL-28 > 100 µM | SK-OV-3 > 100 µM | SNB-75 > 100 µM | SR > 100 µM | SW-620 > 100 µM | UACC-257 > 100 µM | UACC-62 > 100 µM | UO-31 > 100 µM

COc1cc(C2C(Cl)C(=O)N2n2cnc3ccccc3c2=O)ccc1O (stereo not drawn)
inactive: 786-0 > 100 µM | A549 > 100 µM | CCRF-CEM 80 µM | COLO 205 > 100 µM | HCT-116 > 100 µM | IGROV-1 78.2 µM | LOX IMVI > 100 µM | M14 > 100 µM | NCI-H226 > 100 µM | SF-295 > 100 µM | SK-MEL-28 88.7 µM | SK-OV-3 68.9 µM | SNB-75 26.1 µM | SR 83.6 µM | SW-620 > 100 µM | UACC-257 25.4 µM | UACC-62 60.8 µM | UO-31 56.4 µM

Oc1ccncc1-c1cnccc1O
inactive: 786-0 > 100 µM | A549 > 100 µM | CCRF-CEM > 100 µM | COLO 205 > 100 µM | HCT-116 > 100 µM | HOP-92 > 100 µM | IGROV-1 > 100 µM | LOX IMVI > 100 µM | M14 > 100 µM | NCI-H226 > 100 µM | SF-295 > 100 µM | SK-MEL-28 > 100 µM | SK-OV-3 > 100 µM | SNB-75 > 100 µM | SW-620 > 100 µM | UACC-257 > 100 µM | UACC-62 > 100 µM | UO-31 > 100 µM

COc1cc(/C=N/N=C(\N)NO)c(Cl)cc1O
inactive: 786-0 46.6 µM | A549 38 µM | CCRF-CEM > 100 µM | COLO 205 38.2 µM | HCT-116 38.6 µM | HOP-92 4.97 µM | IGROV-1 > 100 µM | LOX IMVI 32.7 µM | NCI-H226 81.5 µM | SF-295 96.2 µM | SK-MEL-28 38.5 µM | SK-OV-3 85.9 µM | SW-620 77.8 µM | UACC-257 > 100 µM | UACC-62 47.1 µM | UO-31 94 µM

C=C(COC(C)=O)CC(OC(C)=O)c1ccccc1 (stereo not drawn)
inactive: 786-0 > 100 µM | A549 > 100 µM | CCRF-CEM 68.4 µM | COLO 205 > 100 µM | HCT-116 > 100 µM | HOP-92 > 100 µM | IGROV-1 > 100 µM | LOX IMVI > 100 µM | M14 > 100 µM | NCI-H226 > 100 µM | SF-295 > 100 µM | SK-MEL-28 > 100 µM | SK-OV-3 > 100 µM | SNB-75 > 100 µM | SW-620 > 100 µM | UACC-62 > 100 µM | UO-31 > 100 µM

O=[N+]([O-])c1ccc(/C=C/c2csnn2)cc1
inactive: 786-0 > 100 µM | A549 > 100 µM | CCRF-CEM > 100 µM | HCT-116 > 100 µM | HOP-92 70.5 µM | IGROV-1 > 100 µM | LOX IMVI > 100 µM | M14 > 100 µM | NCI-H226 > 100 µM | SF-295 > 100 µM | SK-MEL-28 > 100 µM | SK-OV-3 > 100 µM | SW-620 > 100 µM | UACC-257 > 100 µM | UACC-62 > 100 µM | UO-31 > 100 µM

C#CCN(Cc1ccc2nc(-c3ccccc3)c(N)nc2c1)c1cc(OC)c(OC)c(OC)c1
inactive: 786-0 44.7 µM | A549 23.2 µM | CCRF-CEM 17.9 µM | COLO 205 21.2 µM | HCT-116 19.2 µM | IGROV-1 37.1 µM | LOX IMVI 25.2 µM | M14 25.5 µM | NCI-H226 16.7 µM | SF-295 18.7 µM | SK-MEL-28 37.1 µM | SNB-75 30.4 µM | SR 13.9 µM | SW-620 36.5 µM | UACC-62 20 µM | UO-31 23.1 µM

Reference: ChEMBL document CHEMBL1201862, “PubChem BioAssay data set” (2004)
